Measurements published in patent US20240401094A1, “SOLID FORM OF (-)-AMBROX FORMED BY A BIOCONVERSION OF HOMOFARNESOL IN THE PRESENCE OF A BIOCATALYST” (Givaudan SA, priority 2016, published 2024).

Experiment: Sensory analysis (odour / GC-detection threshold and odour character)
Settings: for odour description: result in words
Excerpt: Purpose: to Carry Out a Sensory Analysis of (−)-Ambrox and the Compounds (II), (III) and (IV) Formed in the Crude Material and in the Crystallised Material.

Structure (SMILES): CC1(C)CCC[C@]2(C)[C@H]3CCO[C@]3(C)CC[C@@H]12 [(−)-Ambrox]
- Odour Threshold (sensory analysis): 0.2 ng/L

Structure (SMILES): C/C1=C/CCO[C@@]2(C)CCCC(C)(C)[C@@H]2CC1 [Compound (II)]
- detection threshold (as stated in the description): > 500 ng/L
- GC-detection threshold (sensory analysis): > 500 ng
- odour description (sensory analysis): “odorless”
- odour description (sensory analysis, listed as II): weaker odour
- odour description (sensory analysis, listed as compound of formula (II)): practically odourless

Structure (SMILES): CC1(C)CCC[C@@]2(C)[C@H]1CC[C@@]1(C)OCC[C@@H]21 [Compound (III), epi-Ambrox]
- GC-threshold relative to (−)-Ambrox (times higher) (compared with (−)-Ambrox): about 10 ×
- odor weaker than (−)-Ambrox (compared with (−)-Ambrox): about 10 fold
- GC-detection threshold (sensory analysis): circa 2 ng
- odour description (sensory analysis, listed as Compound III): essentially odorless
- odour description (sensory analysis, listed as III): weaker odour

Structure (SMILES): CC1(C)CCC[C@@]2(C)[C@H]1CC[C@]1(C)OCC[C@@H]21 [Compound (IV)]
- GC-detection threshold (sensory analysis): 5 to 10 ng
- odour description (sensory analysis): weak, IsoE, woody
- odour description (sensory analysis, listed as IV): weaker odour
